Test results: patent US9751887B2, “Imidazo[1,2-b]pyridazine derivatives as kinase inhibitors” (Daiichi Sankyo Company, Limited, priority 2012, dated 2017)

Legend:
[1] = target: T1, ROS1 (Homo sapiens, UniProt P08922); assay: ROS1 autophosphorylation inhibitory activity evaluation (ADP-Glo); assay type: biochemical; settings: 200 nM inactive ROS1, ATP 1 mM, 25° C. 1.5 hours, ADP generated, four separate measurements
T1 construct: purchased Carna Biosciences 08-163
Experimental: Fifty mM HEPES (pH 7.5), 10 mM MgCl2, 0.01% Brij-58, and 2.5 mM DTT were mixed to prepare an enzymatic reaction solution. […] ATP (final concentration: 1 mM) was further added thereto at a concentration of 2.5 μL/well. The resulting plate was left standing at 25° C. for 1.5 hours to cause enzymatic reaction. After the completion of enzymatic reaction, ADP-Glo Reagent-1 (Promega, V9103) was added thereto at a concentration of 2.5 μL/well, and the plate was left standing at room temperature for 60 minutes. Then, ADP-Glo Reagent-2 (Promega) was added thereto at a concentration of 5 μL/well, and the plate was left standing at room temperature for 60 minutes. The amount of ADP generated by the autophosphorylation of ROS1 was measured using EnVision (PerkinElmer Japan). The amount of ADP generated in four separate measurements was defined as the autophosphorylation intensity of ROS1. IC50 values were calculated by curve fitting using GraphPad Prism version 4 (GraphPad software).

[2] = target: T1, ROS1; assay: ROS1 kinase inhibitory activity evaluation (mobility shift, EZ Reader II); assay type: biochemical; settings: ROS1 25 pg/μL, FL-Peptide 22 substrate, three separate measurements
Experimental: Next, a substrate reaction solution was prepared. […] Then, the reaction stop solution was added thereto at a concentration of 40 μL/well. Substrate phosphorylation intensity was measured using EZ Reader II (Caliper Life Sciences).

[3] = tested on: HCC78 cells having ROS1 fusion gene; assay: HCC78 cell growth assay (CellTiter-Glo); assay type: cell-based; settings: Homo sapiens, HCC78, 72 h, 72 hours culture, 2% FBS medium, luminescence, four separate measurements; read-out: growth inhibitory effect on HCC78 cells having ROS1 fusion gene IC50
Experimental: Each compound of the present invention was assayed for its cell growth inhibitory effect using HCC78 cells having ROS1 fusion gene.
The suspension was dispensed at a concentration of 100 μL/well to a 96-well culture plate for cell culture (SUMITOMO BAKELITE, Cat No MS-0096S) (hereinafter, referred to as an assay plate). […] In this context, the final concentration of DMSO was set to 0.4%. Then, the cells were cultured for 72 hours in a CO2 incubator.
CellTiter-Glo Luminescent Cell Viability Assay reagent (Promega, Cat No G7571) was dispensed at a concentration of 100 μL/well to the assay plate. The contents in each well were reacted at room temperature for 10 minutes while stirred using a plate mixer. […] The luminescence intensity of each well was measured using EnVision. The luminescence intensity of each well obtained in four separate measurements was defined as the number of cells. IC50 values were calculated by curve fitting using GraphPad Prism version 4.

T1 sequence (P08922 28-2347): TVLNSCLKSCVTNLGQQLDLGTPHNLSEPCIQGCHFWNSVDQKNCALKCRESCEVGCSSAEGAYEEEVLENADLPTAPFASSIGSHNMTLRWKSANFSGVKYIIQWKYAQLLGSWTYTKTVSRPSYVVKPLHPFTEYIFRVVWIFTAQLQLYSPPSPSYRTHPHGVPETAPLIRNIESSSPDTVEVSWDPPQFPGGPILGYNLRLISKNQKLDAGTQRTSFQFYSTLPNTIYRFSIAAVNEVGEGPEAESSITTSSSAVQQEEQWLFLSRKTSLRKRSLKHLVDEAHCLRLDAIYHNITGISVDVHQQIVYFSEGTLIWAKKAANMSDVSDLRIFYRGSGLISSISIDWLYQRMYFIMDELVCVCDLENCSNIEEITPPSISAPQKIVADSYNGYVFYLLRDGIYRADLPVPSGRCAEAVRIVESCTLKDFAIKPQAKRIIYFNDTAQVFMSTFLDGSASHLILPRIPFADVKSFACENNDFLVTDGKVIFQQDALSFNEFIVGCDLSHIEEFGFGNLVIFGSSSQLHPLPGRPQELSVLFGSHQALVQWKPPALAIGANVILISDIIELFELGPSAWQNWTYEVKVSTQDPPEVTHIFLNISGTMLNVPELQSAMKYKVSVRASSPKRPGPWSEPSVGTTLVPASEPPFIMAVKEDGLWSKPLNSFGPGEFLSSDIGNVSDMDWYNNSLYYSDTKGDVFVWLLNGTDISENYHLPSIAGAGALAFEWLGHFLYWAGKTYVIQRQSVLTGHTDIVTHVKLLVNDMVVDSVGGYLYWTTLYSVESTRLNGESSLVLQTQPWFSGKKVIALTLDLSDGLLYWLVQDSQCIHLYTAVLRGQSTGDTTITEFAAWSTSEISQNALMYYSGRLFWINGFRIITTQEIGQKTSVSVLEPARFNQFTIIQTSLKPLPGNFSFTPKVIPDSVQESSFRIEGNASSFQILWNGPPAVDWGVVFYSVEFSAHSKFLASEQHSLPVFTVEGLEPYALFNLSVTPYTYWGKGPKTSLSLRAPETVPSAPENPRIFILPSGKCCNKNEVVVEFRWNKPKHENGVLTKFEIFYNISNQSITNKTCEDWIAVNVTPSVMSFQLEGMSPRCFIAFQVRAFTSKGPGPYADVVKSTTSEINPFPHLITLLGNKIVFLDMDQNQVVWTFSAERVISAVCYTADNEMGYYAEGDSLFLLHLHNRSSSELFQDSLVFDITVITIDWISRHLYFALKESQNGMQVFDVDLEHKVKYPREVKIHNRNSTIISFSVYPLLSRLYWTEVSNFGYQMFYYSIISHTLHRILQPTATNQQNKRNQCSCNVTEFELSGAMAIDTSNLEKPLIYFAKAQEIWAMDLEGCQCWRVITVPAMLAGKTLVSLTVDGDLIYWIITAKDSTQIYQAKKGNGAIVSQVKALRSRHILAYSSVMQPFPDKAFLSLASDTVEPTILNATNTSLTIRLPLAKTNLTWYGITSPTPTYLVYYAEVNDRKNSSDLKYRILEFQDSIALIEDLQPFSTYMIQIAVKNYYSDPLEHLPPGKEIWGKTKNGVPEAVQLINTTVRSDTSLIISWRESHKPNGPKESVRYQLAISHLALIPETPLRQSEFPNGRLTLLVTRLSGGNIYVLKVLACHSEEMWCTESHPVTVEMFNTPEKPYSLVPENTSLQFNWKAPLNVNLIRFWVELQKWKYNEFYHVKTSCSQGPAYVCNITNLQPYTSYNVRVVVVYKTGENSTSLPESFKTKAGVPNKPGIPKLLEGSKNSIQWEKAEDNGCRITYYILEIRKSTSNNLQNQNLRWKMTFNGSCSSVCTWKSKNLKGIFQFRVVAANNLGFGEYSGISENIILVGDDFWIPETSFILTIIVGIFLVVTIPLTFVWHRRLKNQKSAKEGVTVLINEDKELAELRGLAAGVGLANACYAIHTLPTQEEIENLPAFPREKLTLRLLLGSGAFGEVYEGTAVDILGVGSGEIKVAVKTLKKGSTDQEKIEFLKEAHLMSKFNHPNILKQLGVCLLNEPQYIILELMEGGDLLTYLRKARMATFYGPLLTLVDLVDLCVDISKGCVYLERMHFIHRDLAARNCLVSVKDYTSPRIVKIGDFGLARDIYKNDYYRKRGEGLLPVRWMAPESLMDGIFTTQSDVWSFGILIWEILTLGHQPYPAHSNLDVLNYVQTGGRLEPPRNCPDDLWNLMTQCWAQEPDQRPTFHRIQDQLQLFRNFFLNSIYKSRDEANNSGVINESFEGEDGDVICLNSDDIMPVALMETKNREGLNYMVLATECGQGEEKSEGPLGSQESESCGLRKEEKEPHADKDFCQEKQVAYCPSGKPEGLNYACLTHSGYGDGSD

Structure (SMILES) | IC50 [1] | IC50 [2] | IC50 [3]
CC(Oc1ccc2ncc(-c3ccc(N4C[C@@H](N)CC4=O)cc3)n2n1)c1nccs1 (stereo partly drawn) [Example 105, (4S)-4-Amino-1-[4-[6-(1-thiazol-2-ylethoxy)imidazo[1,2-b]pyridazin-3-yl]phenyl]pyrrolidin-2-one] | 20 to 100 nM | 10 to 60 nM | 100 to 600 nM
Fc1cccc(COc2ccc3ncc(-c4ccc(OC[C@@H]5CCCN5)cc4)n3n2)c1 [Example 12, 6-[(3-Fluorophenyl)methoxy]-3-[4-[[(2S)-pyrrolidin-2-yl]methoxy]phenyl]imidazo[1,2-b]pyridazine] | 20 to 100 nM | 1 to 10 nM | 100 to 600 nM
CC(Oc1ccc2ncc(-c3ccc(N4C[C@@H](N)CC4=O)cc3)n2n1)c1cccc(F)c1F (stereo partly drawn) [Example 102, (4S)-4-Amino-1-[4-[6-[1-(2,3-difluorophenyl)ethoxy]imidazo[1,2-b]pyridazin-3-yl]phenyl]pyrrolidin-2-one] | < 20 nM | 1 to 10 nM | 100 to 600 nM
CN(Cc1cccc(F)c1)c1ccc2ncc(-c3ccc(N4C[C@@H](N)CC4=O)c(C#N)c3)n2n1 [Example 131, 2-[(4S)-4-Amino-2-oxopyrrolidin-1-yl]-5-[6-[(3-fluorophenyl)methyl-methylamino]imidazo[1,2-b]pyridazin-3-yl]benzonitrile] | < 20 nM | 1 to 10 nM | 20 to 100 nM
CC(Oc1ccc2ncc(-c3ccc(N4C[C@@H](N)CC4=O)cc3)n2n1)c1cc(Cl)n(C)n1 (stereo partly drawn) [Example 113, (4S)-4-Amino-1-[4-[6-[1-(5-chloro-1-methylpyrazol-3-yl)ethoxy]imidazo[1,2-b]pyridazin-3-yl]phenyl]pyrrolidin-2-one] | < 20 nM | 1 to 10 nM | < 20 nM
Cc1cc(-c2cnc3ccc(OC(C)c4cncc(F)c4)nn23)ccc1N1C[C@@H](N)CC1=O (stereo partly drawn) [Example 111] | 20 to 100 nM | 1 to 10 nM | 20 to 100 nM

Next, values leading:

IC50 [1] | IC50 [2] | IC50 [3] | Structure (SMILES)
< 20 nM | < 1 nM | 20 to 100 nM | C[C@@H](Nc1ccc2ncc(-c3ccc(O[C@@H]4CCNC4)cc3)n2n1)c1cccc(F)c1 [Example 22, N-[(1R)-1-(3-Fluorophenyl)ethyl]-3-[4-[(3R)-pyrrolidin-3-yl]oxyphenyl]imidazo[1,2-b]pyridazin-6-amine]
< 20 nM | < 1 nM | < 20 nM | C[C@@H](Nc1ccc2ncc(-c3ccc(OC[C@@H](N)CO)cc3)n2n1)c1cccc(F)c1 [Example 56, (2S)-2-Amino-3-[4-[6-[[(1R)-1-(3-fluorophenyl)ethyl]amino]imidazo[1,2-b]pyridazin-3-yl]phenoxy]propan-1-ol]
< 20 nM | < 1 nM | 20 to 100 nM | C[C@@H](Nc1ccc2ncc(-c3ccc(OCC4(N)CC4)cc3)n2n1)c1cccc(F)c1 [Example 39, 3-[4-[(1-Aminocyclopropyl)methoxy]phenyl]-N-[(1R)-1-(3-fluorophenyl)ethyl]imidazo[1,2-b]pyridazin-6-amine]
20 to 100 nM | 1 to 10 nM | 100 to 600 nM | C[C@@H](Oc1ccc2ncc(-c3ccc(OC4CCNCC4)cc3)n2n1)c1cccc(F)c1 [Example 15, 6-[(1R)-1-(3-Fluorophenyl)ethoxy]-3-[4-(4-piperidyloxy)phenyl]imidazo[1,2-b]pyridazine]
100 to 150 nM | 1 to 10 nM | 100 to 600 nM | C[C@@H](Nc1ccc2ncc(-c3ccc(F)c(OC[C@@H]4CCN4)c3)n2n1)c1cccc(F)c1 [Example 64, 3-[3-[[(2S)-Azetidin-2-yl]methoxy]-4-fluoro-phenyl]-N-[(1R)-1-(3-fluorophenyl)ethyl]imidazo[1,2-b]pyridazin-6-amine]
< 20 nM | < 1 nM | < 20 nM | C[C@H](N)COc1ccc(-c2cnc3ccc(N[C@H](C)c4cccc(F)c4)nn23)cn1 [Example 63, 3-[6-[(2S)-2-Aminopropoxy]-3-pyridyl]-N-[(1R)-1-(3-fluorophenyl)ethyl]imidazo[1,2-b]pyridazin-6-amine]
